According to ChEMBL document CHEMBL3393031, “Inhibitory constituents of Sophora tonkinensis on nitric oxide production in RAW 264.7 macrophages” (Bioorg Med Chem Lett, 2015):

Columns and labels:
RAW264.7 [1] = test: Antiinflammatory activity in mouse RAW264.7 cells assessed as inhibition of LPS-induced NO production after 24 hrs by Griess assay; format: functional, cell-based; settings: RAW264.7, 24 h
RAW264.7 [2] = test: Cytotoxicity against mouse RAW264.7 cells after 24 hrs by MTT assay; format: cell-based; settings: raw264.7, 24 h

| SMILES | IC50 (RAW264.7 [1]) [µM] | Activity (RAW264.7 [2]) |
| --- | --- | --- |
| COc1cc([C@H]2OC[C@@H]3C(c4cc(OC)c(O)c(OC)c4)OC[C@H]23)ccc1O (some centres not stated) [MEDIORESINOL] | 41 | Non-toxic |
| Oc1ccc2c(c1)OC[C@H]1c3cc4c(cc3O[C@@H]21)OCO4 [MAACKIAIN] | 27 | Non-toxic |
| COc1ccc(-c2coc3cc(O)ccc3c2=O)cc1O [CALYCOSIN] | > 50 | Non-toxic |
| O=c1c(-c2ccc(O)cc2)coc2cc(O)cc(O)c12 [GENISTEIN] | > 50 | Non-toxic |
| CC(C)=CCc1cc([C@@H]2CC(=O)c3ccc(O)c(CC=C(C)C)c3O2)cc2c1OC(C)(C)C=C2 | 13.6 | Non-toxic |
| CC(C)=CCc1cc([C@@H]2CC(=O)c3ccc(O)c(CC=C(C)C)c3O2)cc(CC=C(C)C)c1O | 28.1 | Non-toxic |
| COc1cc([C@H]2OC[C@H]3[C@@H]2CO[C@@H]3c2cc(OC)c(O)c(OC)c2)cc(OC)c1O [SYRINGARESINOL] | > 50 | Non-toxic |
| O=c1cc(-c2ccc(O)cc2)oc2cc(O)ccc12 | > 50 | Non-toxic |
| N=C(N)NN [PIMAGEDINE] | 18.7 | Non-toxic |
| C/C=C/C(=O)OC[C@H]1O[C@@H](Oc2ccc3c(c2)OC[C@H]2c4cc5c(cc4O[C@@H]32)OCO5)[C@H](O)[C@@H](O)[C@@H]1O | 33 | Non-toxic |
| COc1cc([C@@H]2OC[C@@H]3[C@H]2CO[C@H]3c2ccc(O)c(OC)c2)ccc1O [(+)-PINORESINOL] | 45.1 | Non-toxic |
